The RepoRT retention time repository (doi:10.3390/metabo9050085)

assay: Phenomenex Kinetex C18, 150 × 2.1 mm, 1.7 µm, 30 °C, 0.3 mL/min; A: water + 0.1% formic acid; B: acetonitrile + 0.1% formic acid; gradient (min/%B) 0/2 14/100 17/100 17/2 25/2; details: stereoisomer not certain

| SMILES | LC retention time |
| --- | --- |
| CC12CCC3C(CCC4=CC(=O)CCC43C(=O)O)C1CCC2C(=O)CO (stereo not given) | 8.03 min |
| CC12CCC3c4ccc(O)c(O)c4CCC3C1CCC2O (stereo not given) | 7.61 min |
| CC12CCC(=O)C=C1CC(O)C1C2CCC2(C)C(O)CCC12 (stereo not given) | 7.06 min |
| CC(O)C1CCC2C3CCC4=CC(=O)CCC4(C)C3CCC12C (stereo not given) | 12 min |
| CC12CCC(O)CC1CCC1C2C2CC3(C(O)O2)C(C(=O)CO)CCC13 (stereo not given) | 7.18 min |
| CC(=O)C1=CCC2C3CCC4=CC(=O)CCC4(C)C3CCC12C (stereo not given) | 12.7 min |
| CC12CCC3C(CCC4=CC(=O)CCC43C=O)C1CCC2=O (stereo not given) | 9.42 min |
| CC(=O)C1(O)CCC2C3CCC4=CC(=O)CCC4(C)C3C(O)CC21C (stereo not given) | 8.8 min |
| O=CC12CC(O)C3C4CCC(=O)C=C4CCC3C1CCC2C(=O)CO (stereo not given) | 7.1 min |
| CC(=O)C1CCC2C3=CC=C4CC(O)CCC4(C)C3CCC12C (stereo not given) | 11.6 min |
| CC12CCC(=O)CC1CCC1C2C(O)CC2(C=O)C(C(=O)CO)CCC12 (stereo not given) | 7.97 min |
| CC12CCC3C4=CC(=O)C(=O)C=C4CCC3C1CCC2O (stereo not given) | 7.58 min |
| CC12CCC(O)C=C1CCC1C2CCC2(C)C(O)CCC12 (stereo not given) | 9.76 min |
| CC12CCC(O)CC1CCC1C2C(=O)CC2(C)C1CCC2(O)C(=O)CO (stereo not given) | 8.38 min |
| CC(=O)C1C(O)CC2C3CCC4=CC(=O)CCC4(C)C3CCC21C (stereo not given) | 9.08 min |
| CC12CCC3C(CC=C4CC(OS(=O)(=O)O)CCC43C)C1CCC2=O (stereo not given) | 9.91 min |
| CC(O)C1CCC2C3CCC4CC(=O)CCC4(C)C3CCC12C (stereo not given) | 13.9 min |
| CC12CCC(=O)C=C1CCC1C2C(O)CC2(C)C1CCC2(O)C(=O)CO (stereo not given) | 7.61 min |
| CC12CCC3C(C(O)CC4CC(O)CCC43C)C1CCC2=O (stereo not given) | 8.74 min |
| CC12CCC(O)CC1=CCC1C2CCC2(C)C(O)CCC12 (stereo not given) | 10.8 min |
| CC12CC(O)C3C(CCC4=CC(=O)CCC43C)C1CCC2=O (stereo not given) | 8.87 min |
| CC12CCC(O)CC1CCC1C2CCC2(C)C(C(=O)CO)CCC12 (stereo not given) | 11.3 min |
| CC12CCC(=O)C=C1CCC1C2C(O)CC2(C=O)C1CCC2(O)C(=O)CO (stereo not given) | 6.76 min |

| SMILES | LC retention time |
| --- | --- |
| CC12CCC(=O)C=C1CCC1C2C(=O)CC2(C)C1CCC2(O)C(=O)CO (stereo not given) | 7.75 min |
| CC12CCC(=O)C=C1CCC1C2CCC2(C)C1CCC2(O)CCO (stereo not given) | 10 min |
| CC12CCC(O)CC1=CC(O)C1C2CCC2(C)C(O)CCC12 (stereo not given) | 7.81 min |
| CC12CCC3C(C(O)CC4CC(O)CCC43C)C1CC(O)C2 (stereo not given) | 7.39 min |
| CC12CCCC1C1CC(O)C3(O)CC(O)CCC3(C)C1CC2 (stereo not given) | 10.5 min |
| CC12CCC(O)CC1=CCC1C2CCC2(C)C(C(=O)CO)CCC12 (stereo not given) | 10.5 min |
| CC(=O)C1(O)CCC2C3CCC4=CC(=O)CCC4(C)C3CCC21C (stereo not given) | 10.9 min |
| CC12CCC3C(CCC4=CC(=O)CCC43CO)C1CCC2O (stereo not given) | 7.3 min |
| CC(CCC(=O)O)C1CCC2C3CC=C4CC(O)CCC4(C)C3CCC12C (stereo not given) | 15.8 min |
| CC12CCC(=O)C=C1CCC1C2CCC2(C)C(OS(=O)(=O)O)CCC12 (stereo not given) | 9.81 min |
| CC12CCC(=O)CC1CCC1C2CCC2(C)C(OS(=O)(=O)O)CCC12 (stereo not given) | 10.6 min |
| CC12CCC3C(CC=C4CC(=O)CCC43C)C1CCC2=O (stereo not given) | 11 min |
| CC12CCC(O)CC1CCC1C2CCC2(C)C1CCC2(O)C(=O)CO (stereo not given) | 10.1 min |
| CC12CCC(=O)CC1CCC1C2CCC2(C)C(C(=O)CO)CCC12 (stereo not given) | 11.6 min |
| CC12CCC3C(C(O)CC4=CC(=O)CCC43C)C1CCC2=O (stereo not given) | 7.78 min |
| CC(=O)C1CCC2C3CC=C4CC(O)CCC4(C)C3CCC12C (stereo not given) | 13 min |
| CC12CCC3C(CCC4CC(OS(=O)(=O)O)CCC43C)C1CCC2=O (stereo not given) | 10.5 min |
| CC12CCC(=O)C=C1CCC1C2C(O)CC2(C)C(O)CCC12 (stereo not given) | 8.2 min |
| CC(=O)C1(O)CCC2C3CC=C4CC(O)CCC4(C)C3CCC21C (stereo not given) | 10.7 min |
| CC12CCC(=O)C=C1CCC1C2C(=O)CC2(C)C(C(=O)CO)CCC12 (stereo not given) | 8.53 min |
| CC12CC(=O)C3C(CCC4=CC(=O)CCC43C)C1CCC2=O (stereo not given) | 8.68 min |
| CC12CCC(=O)C=C1CCC1C2CCC2(C)C(C(=O)CO)CCC12 (stereo not given) | 10.5 min |
| CC12CCC(O)CC1=CCC1C2CCC2(C)C1CCC2(O)C(=O)CO (stereo not given) | 8.44 min |

| SMILES | LC retention time |
| --- | --- |
| CC12CCC3C(C(=O)CC4CC(O)CCC43C)C1CCC2=O (stereo not given) | 8 min |
| CC12CCC(O)CC1CCC1C2C(=O)CC2(CO)C(C(=O)CO)CCC12 (stereo not given) | 7.57 min |
| CC12CCC(O)CC1=CCC1C2C(O)CC2(C)C1CCC2(O)C(=O)CO (stereo not given) | 8.15 min |
| CC12CCC3C(CCC4=CC(=O)CCC43C=O)C1CCC2O (stereo not given) | 8.59 min |
| CC12CCC(=O)C=C1CCC1C2C(O)CC2(CO)C(C(=O)CO)CCC12 (stereo not given) | 7.34 min |
| CC12C=CC(=O)CC1CCC1C2CCC2(C)C(O)CCC12 (stereo not given) | 9.97 min |
| CC12CCC3C(CCC4=CC(=O)CCC43C)C1CCC2=O (stereo not given) | 10.8 min |
| CC12CCC3C(CCC4=CC(=O)CCC43C)C1CC(O)C2=O (stereo not given) | 8.39 min |
| CC12CCC3C(CCC4=CC(=O)CCC43CO)C1CCC2=O (stereo not given) | 7.72 min |
| CC12CCC(=O)C=C1CCC1C2C(O)CC2(CO)C1CCC2(O)C(=O)CO (stereo not given) | 6.52 min |
| CC12CCC(=O)C=C1CCC1C2CCC2(C)C1CCC2(O)C(=O)CO (stereo not given) | 9.04 min |
| CC12CCC(=O)C=C1CCC1C2C(O)CC2(C=O)C(C(=O)CO)CCC12 (stereo not given) | 7.15 min |
| CC(CCC(=O)O)C1CCC2C3CCC4CCCCC4(C)C3CC(O)C12C (stereo not given) | 16.7 min |
| CC12CCC3C(CCC4=CC(=O)CCC43C=O)C1CCC2C(=O)CO (stereo not given) | 8.89 min |
| CC12CCC3C(CC(O)C4CC(O)CCC43C)C1CCC2O (stereo not given) | 8.18 min |
| CC12CCC3C4CCC(=O)CC4CCC3C1CCC2O (stereo not given) | 9.72 min |
| CC(=O)C1CCC2C3CCC4=CC(=O)CCC4(C)C3CCC12C (stereo not given) | 12.9 min |
| CC(O)C1(O)CCC2C3CCC4=CC(=O)CCC4(C)C3CCC21C (stereo not given) | 9.92 min |
| CC12CCC(=O)C=C1CCC1C2CCC2(C)C(O)CC(O)C12 (stereo not given) | 6.97 min |
| CC12CCC(O)CC1=CCC1C2CCC2(C)C(O)C(=O)CC12 (stereo not given) | 8.03 min |
| CC(=O)C1CCC2C3C(O)C=C4CC(O)CCC4(C)C3CCC12C (stereo not given) | 8.93 min |

The remaining lines, values ahead:

| LC retention time | SMILES |
| --- | --- |
| 9.87 min | CC(=O)C1C(O)CC2C3CC=C4CC(O)CCC4(C)C3CCC21C (stereo not given) |
| 7.76 min | CC12CCC(O)CC1CCC1C2C(O)CC2(C=O)C(C(=O)CO)CCC12 (stereo not given) |
| 7.81 min | CC12CCC3C4=C(CCC3C1CCC2O)C(=O)C(=O)C=C4 (stereo not given) |
| 6.59 min | CC12CCC3c4ccc(O)cc4C(=O)CC3C1CC(O)C2O (stereo not given) |
| 8.66 min | CC(O)C1(O)CCC2C3CCC4CC(O)CCC4(C)C3C(=O)CC21C (stereo not given) |
| 10.7 min | CC12CCC3c4ccc(O)cc4CCC3C1CCC2=O (stereo not given) |
| 11.5 min | COc1cc2c(cc1OC)C1CCC3(C)C(O)CCC3C1CC2 (stereo not given) |
| 8.54 min | CC12CC(=O)C3C(CCC4CC(O)CCC43C)C1CCC2C(O)CO (stereo not given) |
| 10.5 min | COc1cc2c(cc1O)CCC1C2CCC2(C)C(O)CCC12 (stereo not given) |
| 8.65 min | CC12CCC3c4ccc(OS(=O)(=O)O)cc4CCC3C1CCC2=O (stereo not given) |
| 9.18 min | CC12CCC(=O)C=C1CCC1C2C(O)CC2(C)C(C(=O)CC(=O)O)CCC12 (stereo not given) |
| 9.26 min | COc1cc2c(cc1O)C1CCC3(C)C(O)CCC3C1CC2 (stereo not given) |
| 8.37 min | CC(C(=O)O)C1CCC2C3C(O)CC4CC(O)CCC4(C)C3CC(O)C12C (stereo not given) |
| 11.9 min | CC12C=CCC1C1CCC3CC(O)CCC3(C)C1CC2 (stereo not given) |
| 7.97 min | CC12CCC3c4ccc(O)cc4C(O)CC3C1CCC2=O (stereo not given) |
| 7.7 min | CC12CCC3c4ccc(O)cc4CCC3C1C(O)CC2=O (stereo not given) |
| 9.83 min | COc1cc2c(cc1O)C1CCC3(C)C(=O)CCC3C1CC2 (stereo not given) |

| LC retention time | SMILES |
| --- | --- |
| 9.74 min | COc1c(O)ccc2c1CCC1C2CCC2(C)C(=O)CCC12 (stereo not given) |
| 7.33 min | CC12CCC3c4ccc(O)cc4CCC3C1C(O)CC2O (stereo not given) |
| 9.06 min | CC12CC(=O)C3C(CCC4CC(O)CCC43C)C1CCC2C(=O)CO (stereo not given) |
| 6.31 min | CC12CCC(O)CC1CCC1C2CC(O)C2(C)CCC(O)C12 (stereo not given) |
| 7.01 min | CC12CCC3c4ccc(O)cc4C(O)CC3C1CCC2O (stereo not given) |
| 8.07 min | CC12CCC3c4cc(O)c(O)cc4CCC3C1CCC2=O (stereo not given) |
| 8.81 min | CC12CCC(=O)C=C1CCC1C2C(O)CC2(C)C(C(=O)CO)CCC12 (stereo not given) |
| 7.15 min | CC12CCC3c4ccc(O)cc4CC(O)C3C1CCC2O (stereo not given) |
| 8.1 min | CC12CCC(=O)C=C1CCC1C2C(O)CC2(C)C(C(=O)C(=O)O)CCC12 (stereo not given) |
| 12.9 min | CC12CCCC1C1CCC3CC(O)CCC3(C)C1CC2 (stereo not given) |
| 7.73 min | CC12CCC3c4ccc(OS(=O)(=O)O)c(O)c4CCC3C1CCC2=O (stereo not given) |
| 11.3 min | COc1cc2c(cc1O)CCC1C2CCC2(C)C(=O)CCC12 (stereo not given) |
| 7.86 min | CC12CCC3c4cc(O)c(O)cc4CCC3C1CCC2O (stereo not given) |
| 8.06 min | CC12CCC3c4ccc(O)c(O)c4CCC3C1CCC2=O (stereo not given) |
| 7.82 min | CC12CCC3c4ccc(O)cc4CCC3C1CC(=O)C2=O (stereo not given) |
| 11 min | CC(O)C1(O)CCC2C3CCC4CC(O)CCC4(C)C3CCC21C (stereo not given) |
